# Reference: patent US20120027812A1, “INTRAOCULAR LENSES TREATED WITH ALKYLPHOSPHOCHOLINES FOR PHARMACOLOGICAL AFTERCATARACT PROPHYLAXIS” (priority 2009, published 2012)
# Key:
# cat eyes (retina) = experiment: Long-term tolerance after intravitreal administration in cat eyes; type: in vivo; conditions: 28 days after intravitreal administration
# rat eyes (retina) = conditions: seven days after a single injection into the vitreous body; cited from earlier work
# [1] = Stability of the coating to washing with physiological saline solution; type: physicochemical; conditions: repeated washing or rinsing with physiological saline solution
# Excerpt: 1.3 Stability of the coating 10 intraocular lenses were coated with erufosin, as described in example 1.2. The lenses were subsequently each separately transferred into new test tubes and subjected to four washing steps with physiological saline solution. In a further extraction step using methanol/acetonitrile (ratio 9:1), the erufosin adhering to the lenses was removed and determined by mass spectroscopy. The amount of erufosin determined was between […] per lens.
# [2] = system: human lens epithelial cells; experiment: APC-coated intraocular lens laid on cultured lens epithelial cells (Example 3, FIG. 6 and 7); type: cell-based; conditions: as coating on IOLs of hydrophobic acrylates, hydrophilic acrylates and silicones; MTT
# Description: A tetrazolium reduction assay [MTT (3-[4,5-dimethylthiazol-2-yl]-2,5-diphenyltetrazolium bromide] (Sigma-Aldrich) was carried out to determine the cell count. The intraocular lenses were removed, the cells were washed with PBS and incubated with the MTT reagent for 1 hour at 37° C. Only vital cells metabolise the solution. Subsequently, the cell membrane was dissolved with DMSO (dimethylsulphoxide) and the optical thickness was measured in the ELISA reader at 550 nm. In this case, the optical thickness correlates with the number of proliferating cells.
# The intraocular lenses coated with alkylphosphocholines are introduced into a cell culture volume of 500 μl, which corresponds to the volume of the human lens capsular bag in which the intraocular lenses are implanted in the human cataract operation. Moreover, the coated intraocular lenses in vitro are introduced into a cell culture with human lens epithelial cells which are already proliferating. […]
# Effectiveness of an Intraocular Lens Coated with APCs in the Prophylaxis of Aftercataract Intraocular lenses are coated with APC, as explained in Example 1,m and kept sterile at room temperature. […] After 3, 5 and 7 days, the lenses are removed and the cell count of the cells left in the cell culture dishes are determined, as described in 2.1, by cell counters and by the MTT test. […]
# rat retina [3] = experiment: Functional analysis on retina ex vivo (electroretinogram); conditions: concentration of up to 25 μM in the total solution
# [4] = system: Müller glial cells and subretinal pigment epithelial cells; conditions: single intravitreal administration one day after induced retinal detachment; cited from earlier work
# rat retina [5] = conditions: clinically administered doses (4 mg/ml); cited from earlier work
structure (smiles),measurement,setting,value
"CCCCCCCC/C=C\CCCCCCCCCCCCOP(=O)([O-])OCC[N+](C)(C)C [ErPC, erucylphosphocholine]",retinal toxicity,cat eyes (retina),no sign of retinal toxicity
same,"damage to the retinal function (light and electron microscopy, ERG)",rat eyes (retina),no damage to the retinal function could be detected
"CCCCCCCC/C=C\CCCCCCCCCCCCOP(=O)([O-])OCCC[N+](C)(C)C [ErPC3, erucylphosphohomocholine]",removal of the coating from the lenses,[1],no noticeable removal
same,cell growth of lens epithelial cells which are already proliferating,[2],can inhibit the cell growth
same,changes in the electroretinogram,rat retina [3],did not produce any changes in the electroretinogram
same,intraretinal proliferation of Müller glial cells and subretinal pigment epithelial cells,[4],significant inhibition
same,morphologically detectable toxic side-effects,[4],without morphologically detectable toxic side-effects
C[C@]12C=CC(=O)C=C1CC[C@H]1[C@@H]3C[C@@H](O)[C@](O)(C(=O)CO)[C@@]3(C)C[C@H](O)[C@@]12F [triamcinolone],retinal toxicity on the retina ex vivo test subject,rat retina [5],retinal toxicity
"CCCCCCCC/C=C\CCCCCCCCOP(=O)([O-])OCC[N+](C)(C)C [OIPC, oleylphosphocholine]",cell growth of lens epithelial cells which are already proliferating,[2],can inhibit the cell growth
